Measurements taken from article PMC9610285 (Pharmaceutics, 2022).

Assays:
[1] = healthy volunteers, 1 mg single oral dose
[2] = cited from earlier work

C#CCN[C@@H]1CCc2ccccc21 [rasagiline, Rasagiline]
adverse drug reactions (AEs causally related to rasagiline intake) [1]: Only one AE (headache)
capacity to cross the blood-brain barrier [2]: high capacity to cross the blood-brain barrier
elimination half-life (t1/2) [2]: 36 to 120 min
oral bioavailability [2]: 36%
plasma protein binding [2]: 60–70%
urine elimination [2]: 62.6%
tmax (time to reach Cmax) ([2]; oral tablet): approximately 0.5 h
